The results in this text go back to patent publication US20110136899A1, “COMBINATION OF DRONEDARONE WITH AT LEAST ONE DIURETIC, AND THERAPEUTIC USE THEREOF” (SANOFI-AVENTIS, priority 2008, published 2011).

Assay [1] is described as follows: prospective, multinational, multicentre, double-blind clinical study versus placebo: prevention of cardiovascular hospitalizations or of mortality. The class given is in vivo, patients. More on the design: reduction in mortality from any cause: concentration or dose not given beside the values. The procedure:
The patients had to have a history of atrial fibrillation or flutter and/or could be in normal sinus rhythm or in atrial fibrillation or flutter at inclusion.
The patient recruitment was carried out by taking into account the following inclusion criteria:
Inclusion Criteria: • 1) One of the following risk factors had to be present: • age equal to or above 70, or even above 75, possibly combined with at least one of the risk factors below: • hypertension (taking antihypertensives of at least two different classes), • diabetes, • history of cerebral stroke (transient ischemic event or completed cerebral stroke) or of systemic embolism, • left atrial diameter greater than or equal to 50 mm measured by echocardiography, • left ventricular ejection fraction less than 40%, measured by two-dimensional echography; • 2) availability of an electrocardiogram carried out during the past 6 months in order to document the presence or the history of atrial fibrillation or flutter; • 3) availability of an electrocardiogram carried out during the past 6 months in order to document the presence or absence of normal sinus rhythm.
Treatment was initiated using tablets containing either the placebo or an amount of dronedarone hydrochloride corresponding to 400 mg of dronedarone at a rate of one tablet in the morning during or shortly after breakfast and one tablet in the evening during or shortly after dinner.
The anticipated duration of the treatment was variable according to the time at which each patient was included in the study, and could range from a minimum of 12 months for the last patient included up to a maximum corresponding to the entire duration of the study (12 months+duration of inclusion), i.e. approximately 30 months for the first patients included.
The results obtained in this trial were analysed by the Kaplan Meier method for the figures, and the relative risk (RR) was estimated using Cox's proportional-effect regression model.
The relative risk (RR) is the ratio of the rates of occurrence of a hospitalization or of a death among the patients on dronedarone, relative to the patients on placebo.
The percentage reduction x of a given event (hospitalization, death, cardiovascular death, etc.) is calculated in the following way: […]

A short description of assay [2]: regulation of the blood potassium level (regular blood samples taken throughout the clinical study). Format: in vivo, patients. To be noted: after the 24th month, taking into account the starting value; compared to the placebo; p<0.0001. The source says: The potassium concentration-modulating effect is clearly documented in the study by virtue of the results of analyses of regular blood samples taken throughout the duration of the study in the context of the monitoring of vital parameters.
The variations in potassium (in mmol/l) between the first and the last administration of the medicament of the study are included in FIG. 8, in which B signifies basal level, D signifies day and M signifies month.

Where [3] appears, read: versus placebo, x=1−relative risk.

Counter-ions that a name gives are not always drawn.

As for `CCCCc1oc2ccc(NS(C)(=O)=O)cc2c1C(=O)c1ccc(OCCCN(CCCC)CCCC)cc1` [dronedarone hydrochloride], in assay [1] (2301 patients in treated group, 400 mg dronedarone twice daily, placebo group 917 events), the “events (cardiovascular hospitalizations and mortality, principal judgment criterion)” value stood at 734. In assay [1] (2301 patients in treated group, placebo group 35 sudden deaths), this compound registered a sudden deaths of 14. Further, the cardiovascular deaths in assay [1] (2301 patients in treated group, placebo group 94 cardiovascular deaths) was found to be 65. In assay [1] (2301 patients in treated group, placebo group 139 deaths), the “deaths (mortality from any cause)” value is 116. Moreover, in assay [1] (2301 patients in treated group, placebo group 859 events), the “events (cardiovascular hospitalizations)” value is on record as 675. For the same compound, in assay [1] (2301 patients in treated group, placebo group 873 events), the “events (cardiovascular hospitalizations and sudden death)” value was 684. The “events (cardiovascular hospitalizations and cardiovascular mortality)” value in assay [1] (2301 patients in treated group, placebo group 892 events) amounted to 701. For the same compound, the “relative risk (sudden death)” value in assay [1] (versus placebo, Cox model, p=0.0031) turned out to be 0.405. Moreover, the “relative risk (cardiovascular mortality)” value in assay [1] (versus placebo, Cox model, p=0.0252) was 0.698. In addition, the “relative risk (mortality from any cause)” value in assay [1] (versus placebo, Cox model, p=0.1758) amounted to 0.844. For the same compound, the “relative risk (cardiovascular hospitalizations and deaths)” value in assay [1] (versus placebo, Cox model, p=2×10^−8) came to 0.758. The “relative risk (cardiovascular hospitalizations)” value in assay [1] (versus placebo, Cox model, p=9×10^−9) was determined as 0.745. Also, the “relative risk (cardiovascular hospitalizations and cardiovascular deaths)” value in assay [1] (versus placebo, Cox model, p=45×10^−10) was 0.745. In addition, the “relative risk (cardiovascular hospitalizations and sudden deaths)” value in assay [1] (versus placebo, Cox model, p=48×10^−10) is recorded as 0.743. In assay [1] (setting [3]), the “reduction in cardiovascular hospitalizations” value amounted to 25.5%; the “reduction in cardiovascular hospitalizations and cardiovascular deaths” value amounted to 25.5%; the “reduction in cardiovascular hospitalizations and deaths” value is listed as 24.2%; the “reduction in cardiovascular hospitalizations and sudden deaths” value is listed as 25.5%. Besides, in assay [1] (setting [3]), the “reduction in cardiovascular mortality” value amounted to 30.2%, the “reduction in mortality from any cause” value is on record as 15.6% and the “reduction in sudden death” value is 59.5%.

Turning to `CCCCc1oc2ccc(NS(C)(=O)=O)cc2c1C(=O)c1ccc(OCCCN(CCCC)CCCC)cc1` [dronedarone, 2-n-Butyl-3-[4-(3-di-n-butylaminopropoxy)benzoyl]-5-methylsulphonamidobenzofuran], the “change in blood potassium level (analysis of covariance)” value in assay [2] is recorded as “significant different in favour of dronedarone”. For the same compound, the “reduction in the risk of sudden death” value in assay [1] (hypertensive patients) is “approximately 62%”; in assay [1] (patients not taking diuretics, compared with the placebo), “approximately 34%”; in assay [1] (patients on diuretics, compared with the placebo), “approximately 70.4%”; in assay [1] (patients who were not hypertensive), “approximately 45.5%”.
